Laboratory results taken from PMC4880976, “Pharmacologic rationale for the NK1R antagonist, aprepitant as adjunctive therapy in HIV” (Journal of Translational Medicine, 2016).
Entries after “also recorded” stand apart in the source; their conditions may differ. Read-outs that look alike come from different tables or passages of the source.

Assays:
[1] = system: HIV-1 Bal; test: HIV infection of monocyte-derived macrophages (MDM) ex vivo, HIV gag mRNA by real time RT-PCR; assay type: cell-based
Procedure: Blood samples were collected from the antecubital vein and monocytes were isolated as described below.
For HIV infectivity experiments PBMC were isolated from freshly collected blood samples using Ficoll-Paque (GE Healthcare, Uppsala, Sweden) gradient. Monocytes were purified by adhesion as described [26, 27] and cultured in 48-well plates at a density of 0.25 × 10^6/0.5 ml/well in DMEM supplemented with 10 % FBS for 7 days before HIV-1 infection. Macrophages from each subject were exposed to four experimental conditions (none, 1, 5 and 10 µM of aprepitant). 7-day-cultured MDM were incubated with aprepitant for 2 h before infection with HIV-1 Bal (NIH AIDS Reagent Program), 5 ng/well based on p24 antigen assay, corresponding to a MOI of 0.02 determined using MAGI cells expressing CD4 and CCR5 (NIH AIDS Reagent Program). Cells were incubated with virus overnight, and then extensively washed to remove unbound virus. The culture medium and the aprepitant were replaced twice weekly. At day 7 post HIV infection, cellular RNA was extracted from the MDM for assessment of HIV gag mRNA expression using real time RT-PCR assays.
Total RNA was extracted from MDM cells using RNeasy kit (Qiagen), and the potential DNA contamination was eliminated by on-column DNase digestion as instructed by the manufacturer (Qiagen). Total RNA (1 µg) was reverse transcribed using AffinityScript QPCR cDNA Synthesis kit ([sequence], Cedar Creek, TX) with random primer as instructed by the manufacture. 1 µl of the resulting cDNA was used as a template for real-time PCR amplification. […] Corresponding fragments of assayed genes cloned in pGEM-T vector (Promega) were used to generate standard curves.
Following differentiation for 7 days MDM were infected with HIV Bal. Macrophages from each subject were exposed to all four experimental conditions as indicated (1, 5 and 10 μM concentrations of aprepitant). Control, HIV infected MDM were treated with aprepitant vehicle, 0.001 % DMSO. RNA was collected 7 days after infection and assayed for expression of HIV GAG by real time RT PCR using the GAPDH housekeeping gene for normalization. GAG expression in control (non-treated) cultures were designated as 100 %; *p < 0.0001 between all groups including control were obtained through one-way ANOVA with post-test analysis by Bonferroni’s Multiple Comparison Test indicating significant difference between all groups in pair wise comparison. b Aprepitant added to DMEM 10 % FBS media or MDM cultures at a concentration of 1 μM (0.53 μg/ml) on day 0 and measured on days 0, 1, 2, 3 and 7. Results are presented as mean ± SD for three independent experiments

[2] = Protein binding by ultrafiltration in human and rhesus macaque plasma and FBS; assay type: in vitro ADME; settings: three experiments
Procedure: These experiments were conducted to assess the linkage between in vitro and in vivo exposure targets in order to more accurately project clinical dose requirements for aprepitant. Protein binding was assessed via ultrafiltration and detection of aprepitant in various biofluids was conducted via LC–MS/MS.
Ultrafiltration units (CorningR Spin-X UF; MWCO 10 K) and filtrate collection tubes were obtained from Corning (Tewksbury, MA). Control human plasma was obtained by centrifugation of blood obtained from CHOP blood bank. Stock solutions of aprepitant in methanol were added to human plasma (1 %, v/v) to provide plasma samples at a nominal concentration of 10 μg/mL. This was further diluted with human plasma to provide 5, 2 and 0.5 μg/mL solutions. Similarly, aprepitant at above four concentration were also prepared in 10 % FBS in DMEM or 10 % FBS in water. Samples were incubated at 37 °C for 30 min to ensure equilibrium was established. Following incubation, an aliquot of sample was removed for determination of the drug concentration post incubation. Triplicate 500 μL aliquots of the samples were added to the sample reservoir of the UF unit with filtrate collection tubes. All ultrafiltration units were centrifuged at 13,000 rpm (15,000×g) for 15 min at 4 °C. […] Internal standard solution (500 μL) was added to each sample analyzed by the validated LC–MS/MS method described above. […]

[3] = system: SIVmac251; test: SIV infectivity study, plasma viral load; assay type: in vivo, rhesus macaques (Macaca mulatta)
Procedure: (§1) For infectivity studies, eight male rhesus macaques were used. Animals were infected intravenously with 50 ng p27 of SIV. Following infection four animals were treated with aprepitant once daily dosing of 125 mg aprepitant administered orally for a year and four infected animals were left untreated. Aprepitant (commercial capsule contents) was mixed and co-administered with various food preparations to ensure dosing compliance. Food preparations included peanut butter, marshmallow cream and honey, disguised in non-citrus fruit. While formal stability and delivery experiments were not conducted, pilot bioavailability studies confirmed the robustness of aprepitant exposures following food co-administration. The improved bioavailability with food-based dosing in conjunction with oral aprepitant is consistent with preclinical experiments which project simulated exposures based on the commercial nanosized aprepitant formulation. In this evaluation, in silico model predictions were similar to observed in vivo pharmacokinetic data in the fed state; other studies have shown the benefit of complexation strategies to enhance aprepitant solubility/dissolution [30, 31].
Blood was collected for PK sampling on days 1, 7 and 14 and trough samples were collected prior to dosing on days 3, 5, 7, 11 and 13. […] Videotaped recordings were analyzed using Observer XT® (Noldus IT). […]

[4] = set-up: species or system Rhesus macaques; settings: rhesus monkey, in vivo
Procedure: as §1, with “Following infection four animals were treated with aprepitant once daily dosing of 125 mg aprepitant administered orally for a year and four infected animals were left untreated.” left out, “31]. […] Videotaped recordings were analyzed using Observer XT® (Noldus IT). Animals were sacrificed and necropsied after 1 year.” for “31].”

[5] = system: PD-1 expression on CD3+CD4+ cells; test: PD-1 expression on CD4+ T-cells in PBMC, flow cytometry; assay type: cell-based, human
Procedure: For cytokine and PD-1 assessment experiments freshly isolated peripheral blood mononuclear cell (PBMC) purchased from the Human Immunology Core Facility of The University of Pennsylvania School of Medicine (Philadelphia, PA) were cultured in RPMI medium supplemented with 10 % FBS overnight. Some cultures were treated with SP (10 µM) aprepitant (10 µM) or DMSO (0.001 %, vehicle for aprepitant). Cytokine concentrations were measured in supernatants using multiplex assay 24 h after SP/aprepitant treatment (see below). For PD-1 expression SP and aprepitant were added at day 0 and PD-1 expression was monitored daily for up to 8 days using flow cytometry.
Fig. 6 Aprepitant blocks SP induced PD-1 expression on CD4+ T-cells. PBMC were treated for 7 days with SP and aprepitant as indicated. PD-1 expression was measured by flow cytometry on CD3+CD4+ cells and expressed as percentage of PD-1 positive cells. a Results from representative experiment are shown. First two columns show gaiting strategy. […] Median (spread): control 14.7 (11.1), SP treated 38.4 (60.6), SP + aprepitant treated 7.8 (6.0) TEXT PRINTED IN THE PICTURE: (a) SP: PD1+ 67.1 | (a) SP + aprepitant: PD1+ 9.53 DOUBTS OF THE COPYIST ABOUT THIS PICTURE: SP + aprepitant, PD1+ 9.53: the sign after PD1 looks like '+' or '−' because it touches the gate line / SP + aprepitant, 9.53: small print, so the digits 9, 5 and 3 are not fully certain / The rows 'no staining' (PD1+ 0.079) and 'control' (PD1+ 11.4) were left out because they are not substances

[6] = system: pro-inflammatory markers; set-up: method as in PMID 25915168; settings: 375 mg daily, 2 weeks, HIV positive individuals; cited from earlier work
[7] = system: NK1R; set-up: method as in PMID 12562139, PMID 15121485; settings: 165 mg dose, PET; cited from earlier work

C[C@@H](O[C@H]1OCCN(Cc2n[nH]c(=O)[nH]2)[C@H]1c1ccc(F)cc1)c1cc(C(F)(F)F)cc(C(F)(F)F)c1 [aprepitant]
IC50 ([1]; Human immunodeficiency virus 1, BAL, Macrophage, read-out: free drug IC50 concentration): ~0.00265 µg/mL | IC50 ([1]; Human immunodeficiency virus 1, BAL, Macrophage, read-out: total IC50 concentration): 2.65 µg/mL | IC50 ([1]; Human immunodeficiency virus 1, Macrophage, 168 h, human MDM, HIV-1 Bal, gag mRNA day 7, total concentration in DMEM 10 % FBS, read-out: IC50 (ED50 in abstract) for inhibition of HIV infection in MDM): ~5 µM | IC90 ([1]; Human immunodeficiency virus 1, Macrophage, human MDM, HIV-1 Bal, total concentration, read-out: IC90 for inhibition of HIV infection in MDM): ~10 µM | binding to human and rhesus macaque plasma and FBS [2]: 99.79–99.95% | reduction of viral load ([3]; 125 mg once daily oral for 12 months, SIV-infected rhesus, weeks 12-52): approximately tenfold | reduction in plasma levels of viral RNA versus non-treated controls ([3]; 125 mg/day oral, 3–12 month observation period): 1 log | systemic and neuropathology, treated versus untreated [4]: no differences | percentage of PD-1 positive CD4 cells, median (spread) ([5]; SP + aprepitant treated, 7 days, five experiments, control 14.7 (11.1)): 7.8 (6.0) % | effect on SP induced PD-1 expression ([5]; aprepitant with SP): blocked | levels of pro-inflammatory cytokines (G-CSF, MIP-1α, IL-6, IL-8, TNFα) [6]: reduced levels; also recorded: decrease; also recorded: significant reduction | sCD163, plasma SP and PD-1 expression on CD4 T-cells [6]: decrease; also recorded: reduction | receptor occupancy [7]: 97–99%
